Here are results for eight compounds from patent publication EP2526945A1, “New CRTH2 Antagonists” (Almirall, S.A., priority 2011, dated 2012).

pIC50: −log10 of the molar value.

The assay has as its target T1, CRTh2 receptor (Homo sapiens, UniProt Q9Y5Y4).
T1 construct: expressed in transfected cells; host or cells: CHO.K1 cells (membranes)
T1 sequence (Q9Y5Y4 1-395): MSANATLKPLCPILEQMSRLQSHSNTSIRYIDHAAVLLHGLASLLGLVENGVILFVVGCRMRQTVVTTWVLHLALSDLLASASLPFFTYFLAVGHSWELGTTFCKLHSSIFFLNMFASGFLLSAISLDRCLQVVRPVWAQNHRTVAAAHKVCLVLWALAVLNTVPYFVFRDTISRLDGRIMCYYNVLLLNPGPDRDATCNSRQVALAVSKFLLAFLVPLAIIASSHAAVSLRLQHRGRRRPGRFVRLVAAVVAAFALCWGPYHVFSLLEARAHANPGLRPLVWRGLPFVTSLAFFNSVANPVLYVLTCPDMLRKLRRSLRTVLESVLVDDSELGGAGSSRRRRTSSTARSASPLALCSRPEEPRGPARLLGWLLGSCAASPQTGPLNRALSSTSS
As to the kind of experiment: CRTh2 GTPγS antagonism binding assay. The format is biochemical. The note with it: membranes from CHO.K1 cells stably overexpressing the CRTh2 receptor; PGD2 at 50 nM (EC80); [35S]-GTPγS as radioligand; read-out: GTPγ Binding. Here is the method:
CRTh2 GTPγS antagonism binding assay
The assay is performed using membranes obtained from CHO.K1 cells stably overexpressing the CRTh2 receptor and [^35S]-GTPγS as radioligand. Assay is performed pre-incubating 4-8 µg of membranes per well with the compound to be tested for 1 h, followed by incubation with PGD2 at 50 nM (EC80), 0.1 nM [^35S]-GTPγS in incubation buffer (20 mM HEPES, 10 mM MgCl2, 100 mM NaCl, 10 µM GDP, 10 µg/ml Saponine and 0.2% BSA) for 2 h at room temperature. The reaction is terminated by filtering in GF/C plates pre-treated with 20 mM HEPES, 10 mM MgCl2, 100 mM NaCl and washing 6 times with wash buffer (20 mM NaH2PO4, 20 mM Na2HPO4). After washing, plates are dried and scintillation buffer Optiphase added. The radioactivity retained in the filter is counted using a Microbeta liquid scintillation counter.
`Cc1c(Cc2cc(F)ccc2S(=O)(=O)c2ccccc2)c2c(n1CC(=O)O)CCNC2=O` [Example 37, {3-[5-Fluoro-2-(phenylsulfonyl)benzyl]-2-methyl-4-oxo-4,5,6,7-tetrahydro-1H-pyrrolo[3,2-c]pyridin-1-yl}acetic acid]: the pIC50 was 8.43. Regarding `COc1ccc(S(=O)(=O)c2ccccc2)c(Cc2c3c(n(CC(=O)O)c2C)CCNC3=O)c1` [Example 6, {3-[5-Methoxy-2-(phenylsulfonyl)benzyl]-2-methyl-4-oxo-4,5,6,7-tetrahydro-1H-pyrrolo[3,2-c]pyridin-1-yl}acetic acid], the pIC50 was 8.44. As for `Cc1c(Cc2ccc(C(F)(F)F)cc2S(=O)(=O)c2ccccc2)c2c(n1CC(=O)O)CCNC2=O` [Example 10, {2-Methyl-4-oxo-3-[2-(phenylsulfonyl)-4-(trifluoromethyl)benzyl]-4,5,6,7-tetrahydro-1H-pyrrolo[3,2-c]pyridin-1-yl}acetic acid], the figure is 7.89. Next, `Cc1c(Cc2ccccc2S(=O)(=O)c2ccccc2)c2c(=O)[nH]ccc2n1CC(=O)O` [Example 72, {2-Methyl-4-oxo-3-[2-(phenylsulfonyl)benzyl]-4,5-dihydro-1H-pyrrolo[3,2-c]pyridin-1-yl}acetic acid]: 8.07; `Cc1c(Cc2ccccc2S(=O)(=O)c2ccccc2)c2c(n1CC(=O)O)CCN(C)C2=O` [Example 27, {2,5-Dimethyl-4-oxo-3-[2-(phenylsulfonyl)benzyl]-4,5,6,7-tetrahydro-1H-pyrrolo[3,2-c]pyridin-1-yl}acetic acid]: 8.27. Next, `Cc1c(Cc2ccccc2S(=O)(=O)c2ccccc2)c2c(n1CC(=O)O)CCNC2=O` [Example 2, {2-Methyl-4-oxo-3-[2-(phenylsulfonyl)benzyl]-4,5,6,7-tetrahydro-1H-pyrrolo[3,2-c]pyridin-1-yl}acetic acid]: 8.34. As to `COC(=O)c1ccc(Cc2c3c(n(CC(=O)O)c2C)CCNC3=O)c(S(=O)(=O)c2ccccc2)c1` [Example 28, {3-[4-(Methoxycarbonyl)-2-(phenylsulfonyl)benzyl]-2-methyl-4-oxo-4,5,6,7-tetrahydro-1H-pyrrolo[3,2-c]pyridin-1-yl}acetic acid], the pIC50 is 7.96. As for `Cc1c(Cc2ccccc2S(=O)(=O)c2cccc(F)c2)c2c(n1CC(=O)O)CCNC2=O` [Example 12, (3-{2-[(3-Fluorophenyl)sulfonyl]benzyl}-2-methyl-4-oxo-4,5,6,7-tetrahydro-1H-pyrrolo[3,2-c]pyridin-1-yl)acetic acid], the figure is 8.21.
